Experiments:
[1] = system: helminth infestation diseases; test: Helminthicide action in laboratory and field conditions on farm animals; type: in vivo, sheep, cows, and other farm animals
Description: The helminthicide action has been studied in laboratory and field conditions on sheep, cows, and other farm animals of different age and having various helminth infestation diseases. The course of treatment comprises a single oral administration of the preparation in spring and a repeated single administration in autumn. The preparation efficiency is 95 to 100% for the cured animals.

[2] = Lethal dose / toxicity in farm animals; type: in vivo; set-up: lethal dose LD50 / LD100: unit not given here
[3] = meat, milk, and wool
Description: The known preparations are efficient only in respect to the imaginal forms of certain helminth infestation diseases. The novel preparation based on thiodiphenylamine cupric chloride complex salt is not toxic and is convinient in use.

## complex salt of thiodiphenylamine cupric chloride
[1]; pre-imaginal and imaginal forms
  efficiency for curing various helminth infestation diseases in pre-imaginal and imaginal forms: highly efficient for curing various helminth infestation diseases in pre-imaginal and imaginal forms
[1]; single oral administration in spring and repeated single administration in autumn
  preparation efficiency for the cured animals: 95 to 100%
[2]; all varieties of farm animals
  LD100: 1,200
  lethal dose LD50: 1,000
[2]; in vivo
  toxicity: not toxic
[3]
  productivity of farm animals: enhances productivity of farm animals

From patent US4016272A, “Anthelmintic thiodiphenylamine cupric chloride complex salt” (priority 1975, dated 1977)
